The record followed here is patent publication US20220072101A1, “HARNESSING INFLAMMATION TO TREAT NEURODEVELOPMENTAL DISORDERS” (President and Fellows of Harvard College, priority 2019, published 2022).

Entries after “also recorded” stand apart in the source; their conditions may differ.

One test has as its system c-Fos. The experiment in a line: Quantification of c-Fos+ cells in the brain after LPS administration. It is filed as in vivo, mouse. How it is done: Animals were transcardially perfused with cold PFA (4% in PBS). Brains were kept in PFA overnight at 4° C. prior to vibratome sectioning (Leica VT1000s®). Brains were cut at 50 μm thickness for cFos quantification. Brains were cut at 100 μm thickness for all other experiments.
Prior to antibody labeling, sections were incubated in blocking solution (0.4% Triton X-100 and 2% goat serum in PBS) for 30 min. Sections were then incubated in blocking solution containing primary antibodies overnight at room temperature. Primary antibodies used were chicken anti-GFP (1:1000, Ab5450, Abcam®), rabbit anti-cFos (1:500, ABE457, Millipore®), rabbit anti-DsRed (1:1000, 632496, Clontech®). Sections were washed in wash buffer (0.4% Triton X-100 in PBS) three times before secondary antibody labeling. Sections were incubated in blocking solution containing secondary antibodies and DAPI (1:5000, D1306, Thermofisher™) for three hours at room temperature. Images of stained slices were acquired using a confocal microscope (LSM710, Carl Zeiss®) with a 10× or 20× objective lens.
Adult male mice were sacrificed five hours after LPS injection. c-Fos+ cells were quantified using the Cell Counter plugin in Fiji^25. All cells were counted within a single coronal section of each respective brain region as defined by the Paxinos and Franklin Mouse Atlas^26. Regions quantified include mPFC (Including only PrL and IL) (AP+1.98), S1DZ (AP-0.48), S1BF (AP-0.48), M1 (AP-0.46), M2 (AP-0.46), AuD (AP-1.94), CeA (AP-1.94), and V1 (AP-3.64). Somatosensory cortex dysgranular zone (S1DZ), somatosensory cortex barrel field (S1BF), secondary motor cortex (M2), primary motor cortex (M1), secondary auditory cortex dorsal part (AuD), central amygdala (CeA), medial prefrontal cortex (mPFC), prelimbic cortex (PrL), infralimbic cortex (IL), primary visual cortex (V1).
Adult male mice were sacrificed five hours after LPS injection. c-Fos^+ cells were quantified using the Cell Counter plugin in Fiji^28. All cells were counted within a single coronal section of each respective brain region as defined by the Paxinos and Franklin Mouse Atlas^29. Regions quantified include mPFC (PrL and IL) (AP+1.98), S1DZ (AP-0.46), S1BF (AP-0.46), M1 (AP-0.46), M2 (AP-0.46), AuD (AP-1.94), CeA (AP-1.94), and V1 (AP-3.64). Medial prefrontal cortex (mPFC), prelimbic cortex (PrL), infralimbic cortex (IL), primary somatosensory cortex dysgranular zone (S1DZ), primary somatosensory cortex barrel field (S1BF), primary motor cortex (M1), secondary motor cortex (M2), secondary auditory cortex dorsal part (AuD), central amygdala (CeA), primary visual cortex (V1). […]

The subject of test [1] is layer 2/3 pyramidal neurons in S1DZ. Kind of test: Whole-cell patch clamp recordings in brain slices of Veh- or LPS-injected MIA offspring. The following applies: S1DZ pyramidal neurons from LPS-injected MIA offspring. It counts as in vivo, mouse. On the technique in general: Patch clamp records ionic current or voltage across a cell membrane.

For the substance lipopolysaccharide [LPS], in the test with c-Fos (LPS-treated MIA offspring, five hours after LPS), the “number of c-Fos+ S1DZ neurons” value is on record as “indistinguishable from that of PBS offspring; also recorded: reduced to levels of control offspring”. Moreover, the “number of c-Fos-expressing neurons in the central amygdala (CeA)” value in the test with c-Fos (MIA offspring, LPS) is “increased”. The “number of c-Fos-expressing neurons in other cortical regions” value in the test with c-Fos (MIA offspring, LPS, S1BF, M1, M2, mPFC, AuD, V1) is on record as “remained unchanged; also recorded: does not have a distinguishable effect on c-Fos expression in other cortical regions analyzed”. For the same substance, the “number of S1DZ c-Fos+ neurons” value with c-Fos (monogenic mutant mice (Cntnap2, Fmr1, Shank3), LPS) was “failed to reduce the number of S1DZ c-Fos^+ neurons in monogenic mutant mice”. Besides, the “spiking in response to depolarizing current injections” value in test [1] was “reduced spiking in response to depolarizing current injections”.
